Laboratory results as given in the OPERA property sets (Mansouri et al. 2018).
Values after ≈ are worked out from the molar mass of the structure shown.

Row | SMILES | logP | solubility (23 °C) [µM]
1 | CC(=O)OCOc1ccccc1C(N)=O | 0.52 | 
2 | CC(C)(C)C(=O)OCOc1ccccc1C(=O)NCN1CCOCC1 | 1.81 | 
3 | CCCC(=O)OCOc1ccccc1C(N)=O | 1.66 | 
4 | CCCC(=O)OCOc1ccccc1C(=O)NCN1CCOCC1 | 1.34 | 
5 | CC(C)(C)C(=O)OCOc1ccccc1C(N)=O | 2 | 2430 (≈ 610 µg/mL)
6 | CCOC(=O)CC(CO)C(CC)c1cncn1C (stereo not given) | 0.73 | 
7 | O=C(NCN1CCOCC1)c1ccccc1O | 1.27 | 
8 | CC(=O)OCOc1ccccc1C(=O)NCN1CCOCC1 | 0.27 | 
9 | CCC(C(=O)OCCc1ccccc1)C(COC(=O)c1ccccc1)Cc1cncn1C (stereo not given) | 4.6 | 
